# Assay results as given in US20060052456A1, “Kynurenine 3-hydroxylase inhibitors for the treatment of diabetes by increasing the number of islets of langerhans cells” (MERCK PATENT GMBH, priority 2003, published 2006).
# Marks after values point to notes of the source that are not given here.
# Legend:
# hepatocytes = test: Hepatic glucose production in vitro in isolated hepatocytes (Table IV); type: cell-based, Wistar rats; settings: for inhibition of hepatic glucose production in vitro (in words): isolated rat hepatocytes
# Procedure: The following two methods were used:
# (§1) 1) The hepatocytes are cultured for 16 to 18 hours in DMEM medium in the presence of AMP cyclase/dexamethasone at respective concentrations of 5×10^−5 M and 5×10^−7 M, with preincubation of the products at the test doses. After washing in pH 7.4 PBS buffer, the cells are incubated for three hours at 37° C. in a Krebs/AMPc/DEX buffer at the abovementioned concentrations. 0.1 μM insulin is used as reference substance. Two identical experiments are performed (Table III-1).
# (§2) After washing in pH 7.4 PBS buffer, the cells are incubated for two hours at 37° C. in a Krebs buffer free of glucose and of insulin, containing lactate/pyruvate (10/1 mM) in the presence or absence of the test compounds. 10 μM MICA (5-methoxyindole-2-carboxylic acid) is used as reference substance. Two identical experiments are performed (Table III-2).
# The protein assay is performed on the rest of the incubation medium via the Lowry method (BIO-RAD Dc protein assay, BIO-RAD 5000116).
# (§3) The results are expressed as nmoles of glucose produced per […] of proteins. The statistical test used is the t test.
# kynurenine 3-hydroxylase = molecular target: T1, kynurenine 3-hydroxylase (Rattus norvegicus, UniProt O88867); test: Inhibitory activity on kynurenine 3-hydroxylase in rat liver homogenate; type: biochemical; settings: mean of two experiments, read-out: IC50, kynurenine 3-hydroxylase inhibition
# T1 construct: from tissue; host or cells: rat liver homogenate (12000 rpm pellet, resuspended)
# T1 sequence (O88867 whole entry): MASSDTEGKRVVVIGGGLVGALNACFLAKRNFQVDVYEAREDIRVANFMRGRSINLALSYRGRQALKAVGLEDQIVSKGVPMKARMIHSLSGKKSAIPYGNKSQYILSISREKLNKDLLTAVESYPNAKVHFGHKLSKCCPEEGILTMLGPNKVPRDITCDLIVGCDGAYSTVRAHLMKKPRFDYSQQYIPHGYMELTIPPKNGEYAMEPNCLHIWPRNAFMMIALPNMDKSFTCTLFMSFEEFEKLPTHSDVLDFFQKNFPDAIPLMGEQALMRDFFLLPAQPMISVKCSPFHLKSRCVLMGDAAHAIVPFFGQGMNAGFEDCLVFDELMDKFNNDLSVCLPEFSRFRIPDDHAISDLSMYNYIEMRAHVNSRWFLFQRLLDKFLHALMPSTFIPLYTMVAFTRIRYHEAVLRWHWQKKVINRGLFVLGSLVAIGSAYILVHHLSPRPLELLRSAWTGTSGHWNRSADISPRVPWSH
# Procedure: Study of the Inhibitory Activity on Kynurenine 3-Hydroxylase in Rat Liver
# Rat livers are homogenised (1:8 weight/volume) in a buffer solution comprising: 0.25 M sucrose; 50 mM pH 7.4 Tris; 1 mM EDTA; and 1 mM DTT.
# The homogenates are centrifuged for 10 minutes at 12000 rpm. The pellets are resuspended in the buffer solution described above (1:2 weight/volume).
# The kynurenine 3-hydroxylase inhibition is determined by incubating 10 μL of the homogenate with NADPH (2 mM), kynurenine (100 μM) and various concentrations of the test compounds in a final volume of 100 μL at 37° C. for 5 minutes.
# The compounds are tested at concentrations of between 1 μM and 300 μM. 3,4-Dimethoxy-N-[4-(3-nitrophenyl)thiazol-2-yl]benzenesulfonamide is a compound from the company Hoffmann-LaRoche (Basle, see J. Med. Chem., 40 (1997), 4738). 30H-Kynurenine was tested according to the protocol described by Carpendo et al. (Neuroscience, 61 (1994), 237-244).
# Each of the experiments is repeated once and the IC50 values (in μmol/L) are calculated and given in the form of a mean of these two experiments.
# Results concerning representative examples of family Ih are given in Table II below, in which is indicated the measurement of the percentage of remaining kynurenine 3-hydroxylase activity relative to the control (100%).
# [1] = tested on: perfused isolated pancreases from N0 STZ diabetic rats; test: Secretion of insulin and glucagon in perfused isolated pancreases from N0 STZ diabetic rats; type: cell-based; settings: perfused diabetic rat pancreas; absence of glucose, then 16.5 mM glucose; glucose-dependent
# Excerpt: The results are expressed as the mean ±SEM (standard error of mean) of several experiments. The statistical test used is the Scheffé test.
# N0STZ rats = test: Antidiabetic activity in N0STZ rats (glycaemia after oral treatment); type: in vivo, rat; settings: for percentage change in the glycaemia relative to D0, D4 (20 mg) / percentage change in the glycaemia relative to D0, D4 (200 mg): four days of treatment; for percentage change in the glycaemia relative to D0, D1 (20 mg) / percentage change in the glycaemia relative to D0, D1 (200 mg): one day of treatment
# Procedure: Study of the Antidiabetic Activity in N0STZ Rats
# The antidiabetic activity of the compounds of the formulae (I) and (II) orally was determined on an experimental model of non-insulin-dependent diabetes, induced in rats with steptozotocin.
# The model of non-insulin-dependent diabetes is obtained in the rats by means of a neonatal injection (on the day of birth) of steptozotocin.
# The diabetic rats used are eight weeks old. The animals are housed, from the day of birth to the day of the experiment, in an animal house at a regulated temperature of 21 to 22° C. and subjected to a fixed cycle of light (from 7 a.m. to 7 p.m.) and darkness (from 7 p.m. to 7 a.m.). Their food consisted of a maintenance diet, and water and food were given “ad libitum”, with the exception of fasting two hours before the tests, during which period the food is removed (post-absorptive state).
# The rats are treated orally for one (D1) or four (D4) days with the test product. Two hours after the final administration of the product and 30 minutes after anaesthetising the animals with pentobarbital sodium (Nembutal®), a 300 μL blood sample is taken from the end of the tail.
# The results presented below are expressed as a percentage change in the glycaemia on D1 and D4 (number of days of treatment) relative to D0 (before the treatment).
# primary hepatocytes [2] = test: Hepatic glucose production, basal Lact/Pyr 2 hours, in primary hepatocytes (Table III-2); type: cell-based, Wistar rats
# Procedure: (§4) The hepatocytes are isolated from the liver of Wistar rats fasted for 24 hours, according to the method described in Methods Cell Biol., 13 (1975), 29-83.
# 2) The hepatocytes are cultured for 16 to 18 hours in RPMI 1640 medium free of glucose but supplemented with 1% glutamine, 100 U/mL penicillin, […] streptomycin and 7×10^−5 M hydrocortisone hemisuccinate.
# as §2
# (§5) Quantification of the glucose is performed via a calorimetric method using glucose oxidase (IL test™ Glucose, Monarch 181633-80). The protein assay is performed on the rest of the incubation medium via the Lowry method (BIO-RAD Dc protein assay, BIO-RAD 5000116).
# as §3
# primary hepatocytes [3] = test: Hepatic glucose production stimulated by AMPc/DEX in primary hepatocytes (Table III-1); type: cell-based, Wistar rats
# Procedure: as §4, §1, §5, §3
# [4] = Rattus norvegicus, Hepatocyte, 1 μM
# [5] = Rattus norvegicus, Hepatocyte, 10 μM
# [6] = Rattus norvegicus, Hepatocyte, 100 μM
compound,measurement,setting,value
"O=C(CC(C(=O)O)c1ccc(Cl)cc1)c1ccc(Cl)cc1 (centres unmarked) [Ih-27, 2-(4′-chlorophenyl)-4-(4′-chlorophenyl)-4-oxobutanoic acid]",melting point,,154 to 156 °C
"COc1ccc(C(=O)CC(SCc2ccccc2)C(=O)O)cc1 (centres unmarked) [Ih-24, 2-benzylthio-4-(4′-methoxyphenyl)-4-oxobutanoic acid]",melting point,,105 to 109 °C
"O=C(C[C@@H](Cc1ccccc1)C(=O)O)c1ccc(F)cc1 [Compound i, (R)-2-benzyl-4-(4-fluorophenyl)-4-oxobutanoic acid]",inhibition at 1 µM,hepatocytes; [4],13%
same,inhibition at 10 µM,hepatocytes; [5],28%
same,inhibition at 100 µM,hepatocytes; [6],62%
same,inhibition of hepatic glucose production in vitro (in words),hepatocytes,powerful inhibitors of hepatic glucose production in vitro
same,IC50,kynurenine 3-hydroxylase,1000 ± 200 nM
same,glucagon secretion (in words),[1],stimulation
same,insulin secretion (in words),[1],stimulation
"COc1ccc(C(=O)CC(Sc2ccccc2)C(=O)O)cc1 (centres unmarked) [Ih-17, 2-phenylthio-4-(4′-methoxyphenyl)-4-oxobutanoic acid]",melting point,,121 to 125 °C
"O=C(CC(Sc1ccccc1)C(=O)O)c1ccccc1 (centres unmarked) [Ih-2, 2-phenylthio-4-phenyl-4-oxobutanoic acid]",melting point,,132 to 135 °C
"O=C(CC(Sc1ccc(F)cc1)C(=O)O)c1ccccc1 (centres unmarked) [Ih-3, 2-(4′-fluorophenylthio)-4-phenyl-4-oxobutanoic acid]","percentage change in the glycaemia relative to D0, D4 (20 mg)",N0STZ rats,−19%
same,"percentage change in the glycaemia relative to D0, D4 (200 mg)",N0STZ rats,−12%
same,"percentage change in the glycaemia relative to D0, D1 (20 mg)",N0STZ rats,−3%
same,"percentage change in the glycaemia relative to D0, D1 (200 mg)",N0STZ rats,7%
"O=C(C[C@@H](Cc1ccccc1)C(=O)O)c1ccc(Cl)c(Cl)c1 (racemic) [Compound j, (R,S)-2-benzyl-4-(3′,4′-dichlorophenyl)-4-oxobutanoic acid]",inhibition of hepatic glucose production,hepatocytes; 1 μM,30** %
same,inhibition of hepatic glucose production,hepatocytes; 10 μM,51** %
same,inhibition of hepatic glucose production,hepatocytes; 100 μM,65** %
same,inhibition of hepatic glucose production in vitro (in words),hepatocytes,powerful inhibitors of hepatic glucose production in vitro
"O=C(CC(SCc1ccccc1)C(=O)O)c1ccccc1 (centres unmarked) [Ih-8, 2-benzylthio-4-phenyl-4-oxobutanoic acid]",melting point,,143 to 146 °C
"O=C(CC(Sc1ccccc1)C(=O)O)c1ccc(Cl)cc1 (centres unmarked) [Ih-25, 2-phenylthio-4-(4′-chlorophenyl)-4-oxobutanoic acid]",melting point,,166 to 169 °C
"COc1ccc(C(=O)CC(Sc2ccc(C)cc2)C(=O)O)cc1 (centres unmarked) [Ih-20, 2-(4′-methylphenylthio)-4-(4′-methoxyphenyl)-4-oxobutanoic acid]",melting point,,137 to 141 °C
"COc1ccc(SC(CC(=O)c2ccc(OC)cc2)C(=O)O)cc1 (centres unmarked) [Ih-21, 2-(4′-methoxyphenylthio)-4-(4′-methoxyphenyl)-4-oxobutanoic acid]",melting point,,137 to 140 °C
"COc1ccc(C(=O)CC(Sc2ccc(F)cc2)C(=O)O)cc1 (centres unmarked) [Ih-18, 2-(4′-fluorophenylthio)-4-(4′-methoxyphenyl)-4-oxobutanoic acid]",melting point,,108 to 110 °C
"O=C(CC(SC1CCCCC1)C(=O)O)c1ccccc1 (centres unmarked) [Ih-7, 2-cyclohexylthio-4-phenyl-4-oxobutanoic acid]",melting point,,117 °C
"O=C(CC(Sc1ccc2ccccc2c1)C(=O)O)c1ccccc1 (centres unmarked) [Ih-1, 2-(2′-naphthylthio)-4-phenyl-4-oxobutanoic acid]",HGP % of control,primary hepatocytes [2]; 1 μM,110 % of control
same,HGP % of control,primary hepatocytes [2]; 10 μM,127 % of control
same,HGP % of control,primary hepatocytes [2]; 100 μM,75 % of control
same,HGP % of control,primary hepatocytes [3]; 1 μM,103 % of control
same,HGP % of control,primary hepatocytes [3]; 10 μM,83 % of control
same,HGP % of control,primary hepatocytes [3]; 100 μM,15 % of control
same,inhibition of hepatic glucose production in vitro (in words),hepatocytes,powerful inhibitors of hepatic glucose production in vitro
same,"percentage change in the glycaemia relative to D0, D4 (20 mg)",N0STZ rats,−12%
same,"percentage change in the glycaemia relative to D0, D4 (200 mg)",N0STZ rats,−21%
same,"percentage change in the glycaemia relative to D0, D1 (20 mg)",N0STZ rats,7%
same,"percentage change in the glycaemia relative to D0, D1 (200 mg)",N0STZ rats,10%
"Cc1ccc(SC(CC(=O)c2ccc(Cl)cc2)C(=O)O)cc1 (centres unmarked) [Ih-28, 2-(4′-methylphenylthio)-4-(4′-chlorophenyl)-4-oxobutanoic acid]",melting point,,151 to 153 °C
N[C@@H](Cc1c[nH]c2ccccc12)C(=O)O [Tryptophan],inhibition at 10 µM,hepatocytes; [5],12%
same,inhibition at 100 µM,hepatocytes; [6],81%
same,inhibition of hepatic glucose production in vitro (in words),hepatocytes,powerful inhibitors of hepatic glucose production in vitro
same,glucagon secretion (in words),[1],stimulates glucagon secretion in a glucose-dependent manner
same,insulin secretion (in words),[1],stimulates insulin secretion in a glucose-dependent manner
Nc1ccccc1C(=O)CC(N)C(=O)O (centres unmarked) [Kynurenine],inhibition at 1 µM,hepatocytes; [4],2%
same,inhibition at 10 µM,hepatocytes; [5],4%
same,inhibition at 100 µM,hepatocytes; [6],25%
same,inhibition at 1000 µM,"hepatocytes; Rattus norvegicus, Hepatocyte, 1000 μM",78%
same,inhibition of hepatic glucose production in vitro (in words),hepatocytes,powerful inhibitors of hepatic glucose production in vitro
same,glucagon secretion (in words),[1],stimulated
same,insulin secretion (in words),[1],stimulated
"Cc1ccc(SC(CC(=O)c2ccccc2)C(=O)O)cc1 (centres unmarked) [Ih-5, 2-(4′-methylphenylthio)-4-phenyl-4-oxobutanoic acid]",melting point,,132 to 134 °C
"COc1ccc2[nH]c(C(=O)O)cc2c1 [MICA, 5-methoxyindole-2-carboxylic acid]",inhibition at 10 µM,hepatocytes; [5],67%
"O=C(CC(Sc1ccc(F)cc1)C(=O)O)c1ccc(Cl)cc1 (centres unmarked) [Ih-26, 2-(4′-fluorophenylthio)-4-(4′-chlorophenyl)-4-oxobutanoic acid]",melting point,,140 to 141 °C
"COc1ccc(SC(CC(=O)c2ccc(Cl)cc2)C(=O)O)cc1 (centres unmarked) [Ih-29, 2-(4′-methoxyphenylthio)-4-(4′-chlorophenyl)-4-oxobutanoic acid]",melting point,,117 to 119 °C
"COc1ccc(SC(CC(=O)c2ccccc2)C(=O)O)cc1 (centres unmarked) [Ih-6, 2-(4′-methoxyphenylthio)-4-phenyl-4-oxobutanoic acid]",melting point,,116 to 118 °C
"O=C(CC(Sc1ccc(Cl)cc1)C(=O)O)c1ccccc1 (centres unmarked) [Ih-4, 2-(4′-chlorophenylthio)-4-phenyl-4-oxobutanoic acid]",melting point,,140 to 142 °C
"COc1ccc(C(=O)CC(SC2CCCCC2)C(=O)O)cc1 (centres unmarked) [Ih-23, 2-cyclohexylthio-4-(4′-methoxyphenyl)-4-oxobutanoic acid]",melting point,,120 to 122 °C
O=C(O)c1cc(=O)c2ccccc2[nH]1 [Kynurenic acid],glucagon secretion (in words),[1],stimulates
same,insulin secretion (in words),[1],stimulates the secretion of insulin
"COc1ccc(C(=O)CC(Sc2ccc(Cl)cc2)C(=O)O)cc1 (centres unmarked) [Ih-19, 2-(4′-chlorophenylthio)-4-(4′-methoxyphenyl)-4-oxobutanoic acid]",melting point,,120 to 121 °C
